# Where “and” joins values, the source holds several entries; their conditions need not be identical. Identical values can stand only once. Marks after values point to notes of the source that are not given here.
# Assays:
# Assay type in all cases: physicochemical
# [1] = Solubility in DMA/co-solvent mixtures
# Procedure: (§1) Initial solubility screening tests were therefore carried out to determine the solubility of MTL-005 in various water-miscible solvents. The screening tests were carried out by dissolving the MTL-005 in the test solvent, filtering the resulting solution to remove any undissolved materials and assaying the filtrate by measuring the UV absorbance at 420.6 nm.
# According to the invention, water-miscible co-solvents are added to the DMA in order to improve the solubility of the MTL-005 when the formulation is diluted with water. Tests were therefore carried out to determine the solubility of MTL-005 in various DMA/co-solvent mixtures using the methods described above.
# In the first series of tests, approximately 50 mg/ml MTL-005 was added to a range of cosolvent vehicles. A solubility in the region of 50 mg/ml was obtained for a range of vehicles (see results in column 1 in Table 3 below), therefore it could not be confirmed that saturated solutions were obtained. The work was therefore repeated at a higher MTL-005 loading of 150 mg/ml (see results in column 2 of Table 3).
# Stability studies = experiment: Stability studies
# [2] = Initial solubility screening in water-miscible solvents (filtrate assayed by UV absorbance at 420.6 nm)
# Procedure: as §1
# [3] = Solubility in mixtures of DMA and water
# Procedure: as §1
# In order to assess the suitability of DMA solutions of MTL-005 for administration by aqueous infusion, the solubility of MTL-005 in mixtures of DMA and water was assessed using the assay method described above.
substance,measurement,setting,value
"Copper meso-5,15-bis[3-[(1,2-dicarba-closo-dodecaboranyl)-methoxy]-phenyl]-meso-10,20-dinitroporphyrin [MTL-005]",Total MTL-005 dissolved (50 mg/ml added),"[1]; DMA 60%, Macrogol 300 40%",34 mg/mL
same,Total MTL-005 dissolved (50 mg/ml added),"[1]; DMA 60%, Propylene Glycol 40%",4 mg/mL
same,Total MTL-005 dissolved (50 mg/ml added),"[1]; DMA 60%, Solutol HS 40%, may not be saturated",51 mg/mL
same,Total MTL-005 dissolved (150 mg/ml added),"[1]; DMA 60%, Solutol HS 40%",58 mg/mL
same,Total MTL-005 dissolved (50 mg/ml added),"[1]; DMA 60%, Tetraglycol 40%, may not be saturated",53 mg/mL
same,Total MTL-005 dissolved (150 mg/ml added),"[1]; DMA 60%, Tetraglycol 40%",94 mg/mL
same,Total MTL-005 dissolved (50 mg/ml added),"[1]; DMA 60%, Tween 20 40%, may not be saturated",47 mg/mL
same,Total MTL-005 dissolved (150 mg/ml added),"[1]; DMA 60%, Tween 20 40%",37 mg/mL
same,Total MTL-005 dissolved (150 mg/ml added),"[1]; DMA 70%, Solutol HS 20%, Macrogol 300 10%",74 mg/mL
same,Total MTL-005 dissolved (150 mg/ml added),"[1]; DMA 70%, Solutol HS 30%",70 mg/mL
same,Total MTL-005 dissolved (50 mg/ml added),"[1]; DMA 80%, Macrogol 300 10%, Propylene Glycol 10%, may not be saturated",48 mg/mL
same,Total MTL-005 dissolved (50 mg/ml added),"[1]; DMA 80%, Macrogol 300 10%, Tetraglycol 10%, may not be saturated",49 mg/mL
same,Total MTL-005 dissolved (50 mg/ml added),"[1]; DMA 80%, Macrogol 300 20%, may not be saturated",50 mg/mL
same,Total MTL-005 dissolved (150 mg/ml added),"[1]; DMA 80%, Macrogol 300 20%",76 mg/mL
same,Total MTL-005 dissolved (50 mg/ml added),"[1]; DMA 80%, Propylene Glycol 20%",27 mg/mL
same,Total MTL-005 dissolved (50 mg/ml added),"[1]; DMA 80%, Solutol HS 10%, Macrogol 300 10%, may not be saturated",49 mg/mL
same,Total MTL-005 dissolved (150 mg/ml added),"[1]; DMA 80%, Solutol HS 10%, Macrogol 300 10%",95 mg/mL
same,Total MTL-005 dissolved (50 mg/ml added),"[1]; DMA 80%, Solutol HS 10%, Propylene Glycol 10%, may not be saturated",50 mg/mL
same,Total MTL-005 dissolved (150 mg/ml added),"[1]; DMA 80%, Solutol HS 10%, Propylene Glycol 10%",58 mg/mL
same,Total MTL-005 dissolved (50 mg/ml added),"[1]; DMA 80%, Solutol HS 10%, Tetraglycol 10%, may not be saturated",49 mg/mL
same,Total MTL-005 dissolved (150 mg/ml added),"[1]; DMA 80%, Solutol HS 10%, Tetraglycol 10%",113 mg/mL
same,Total MTL-005 dissolved (50 mg/ml added),"[1]; DMA 80%, Solutol HS 20%, may not be saturated",49 mg/mL
same,Total MTL-005 dissolved (150 mg/ml added),"[1]; DMA 80%, Solutol HS 20%",115 mg/mL
same,Total MTL-005 dissolved (50 mg/ml added),"[1]; DMA 80%, Tetraglycol 10%, Propylene Glycol 10%, may not be saturated",50 mg/mL
same,Total MTL-005 dissolved (50 mg/ml added),"[1]; DMA 80%, Tetraglycol 20%, may not be saturated",52 mg/mL
same,Total MTL-005 dissolved (150 mg/ml added),"[1]; DMA 80%, Tetraglycol 20%",131 mg/mL
same,Total MTL-005 dissolved (50 mg/ml added),"[1]; DMA 80%, Tween 20 10%, Macrogol 300 10%, may not be saturated",50 mg/mL
same,Total MTL-005 dissolved (150 mg/ml added),"[1]; DMA 80%, Tween 20 10%, Macrogol 300 10%",83 mg/mL
same,Total MTL-005 dissolved (50 mg/ml added),"[1]; DMA 80%, Tween 20 10%, Propylene Glycol 10%, may not be saturated",49 mg/mL
same,Total MTL-005 dissolved (150 mg/ml added),"[1]; DMA 80%, Tween 20 10%, Propylene Glycol 10%",79 mg/mL
same,Total MTL-005 dissolved (50 mg/ml added),"[1]; DMA 80%, Tween 20 10%, Solutol HS 10%, may not be saturated",52 mg/mL
same,Total MTL-005 dissolved (50 mg/ml added),"[1]; DMA 80%, Tween 20 10%, Tetraglycol 10%, may not be saturated",48 mg/mL
same,Total MTL-005 dissolved (150 mg/ml added),"[1]; DMA 80%, Tween 20 10%, Tetraglycol 10%",101 mg/mL
same,Total MTL-005 dissolved (50 mg/ml added),"[1]; DMA 80%, Tween 20 20%, may not be saturated",51 mg/mL
same,Total MTL-005 dissolved (150 mg/ml added),"[1]; DMA 80%, Tween 20 20%",91 mg/mL
same,Stability as a dry powder,Stability studies; dry powder,relatively stable as a dry powder
same,Stability in solution,Stability studies; in solution,not stable for extended periods in solution
same,Total MTL-005 dissolved,[2]; solvent: Absolute ethanol,0.089 mg/mL
same,Total MTL-005 dissolved,[2]; solvent: Benzyl alcohol,0.91 mg/mL
same,Total MTL-005 dissolved,[2]; solvent: Cremophor EL 5% aq,0.24 mg/mL
same,Total MTL-005 dissolved,[2]; solvent: Cremophor EL 10% aq,0.27 mg/mL
same,Total MTL-005 dissolved,[2]; solvent: Cremophor EL 10% aq(heated),1.65 mg/mL
same,Total MTL-005 dissolved,[2]; solvent: DMA 10% w/v aq,0.13 mg/mL
same,Total MTL-005 dissolved,"[2]; solvent: DMA 10%, Cremophor EL 5% aq",0.30 mg/mL
same,Total MTL-005 dissolved,[2]; solvent: DMA diluted 1 in 10 with Solutol HS15 20% w/v aq,1.44 mg/mL
same,Total MTL-005 dissolved,[2]; solvent: Deionised water,0.001 mg/mL
same,Total MTL-005 dissolved,[2]; solvent: Glycofurol,8.68 mg/mL
same,Total MTL-005 dissolved,[2]; solvent: Macrogol 300,2.60 mg/mL
same,Total MTL-005 dissolved,"[2]; solvent: N,N-Dimethylacetamide (DMA), result close to concentration in sample, solubility may be greater",74.08* mg/ml
same,Total MTL-005 dissolved,[2]; solvent: Polysorbate 20 (5% w/v aq),0.27 mg/mL
same,Total MTL-005 dissolved,[2]; solvent: Polysorbate 20 (10% w/v aq),0.13 mg/mL
same,Total MTL-005 dissolved,[2]; solvent: Polysorbate 20 (20% w/v aq),0.13 mg/mL
same,Total MTL-005 dissolved,"[2]; solvent: Polysorbate 20, result close to concentration in sample, solubility may be greater",5.88* mg/ml
same,Total MTL-005 dissolved,"[2]; solvent: Polysorbate 80 5%, Cremophor EL 5% aq",0.28 mg/mL
same,Total MTL-005 dissolved,"[2]; solvent: Polysorbate 80 5%, DMA 10% aq",0.45 mg/mL
same,Total MTL-005 dissolved,"[2]; solvent: Polysorbate 80 5%, DMA 10%, Cremophor EL 5% aq",0.35 mg/mL
same,Total MTL-005 dissolved,[2]; solvent: Polysorbate 80 (5% w/v aq),0.15 mg/mL and 0.22 mg/mL
same,Total MTL-005 dissolved,[2]; solvent: Polysorbate 80 (10% w/v aq),0.25 mg/mL
same,Total MTL-005 dissolved,[2]; solvent: Polysorbate 80 (20% w/v aq),0.38 mg/mL
same,Total MTL-005 dissolved,[2]; solvent: Propylene glycol,0.019 mg/mL
same,Total MTL-005 dissolved,[2]; solvent: Solutol HS15,11.50 mg/mL
same,Total MTL-005 dissolved,[2]; solvent: Solutol HS15 (5% w/v aq),0.08 mg/mL
same,Total MTL-005 dissolved,[2]; solvent: Solutol HS15 (10% w/v aq),0.10 mg/mL
same,Total MTL-005 dissolved,[2]; solvent: Solutol HS15 (20% w/v aq),0.16 mg/mL
same,Total MTL-005 dissolved,[2]; solvent: Soyabean oil,0.59 mg/mL
same,Total MTL-005 dissolved,[2]; solvent: pH 7 Britton Robinson buffer,0.0016 mg/mL
same,Solubility,"[3]; vehicle: 20% DMA/80% Water, 5 mg/ml added",<50 µg/mL
same,Solubility,"[3]; vehicle: 40% DMA/60% Water, 5 mg/ml added",<50 µg/mL
same,Solubility,"[3]; vehicle: 60% DMA/40% Water, 20 mg/ml added",<50 µg/mL
same,Solubility,"[3]; vehicle: 80% DMA/20% Water, 18 mg/ml added",<50 µg/mL
same,Solubility,"[3]; vehicle: 100% DMA, 92.5 mg/ml added",>90000 µg/mL
